Patent publication US10766873B2, “Zuclopenthixol hydrochloride derivatives and Ebselen derivatives as ErbB2 inhibitors” (Centre National de la Recherche Scientifique (CNRS), priority 2016, dated 2020)

Key:
[1] = system: BT474; experiment: Soft agar colony formation, BT474; assay type: cell-based, human; conditions: 5 or 10 μM, 6 weeks
Procedure: A bottom layer of 0.8% agarose in DMEM supplemented with 20% SVF and penicillin/streptomycin was added to 24 well plates before seeding 25.10^3 SKBR3 or BT474 cells/well in a 0.6% agarose top layer. Cells were left untreated or treated with 5 or 10 μM ZU or EB1 or 5 μM AG1478 (a non-specific ErbB2 kinase inhibitor) as a positive control. Treatments were renewed 3 times a week. After 6 weeks, the number of colonies and their size were quantified using image J software. The colony formation is illustrated for each condition. Data are presented as mean±SEM.

[2] = system: EGFR/ErBB2 or ErbB3/ErbB2 heterodimers-dependent signalling pathways; experiment: Ligand-dependent ErbB2 activation (EGF or HRG) in HBMECs, western blot; assay type: cell-based; conditions: pre-treatment 1 h or 24 h
Procedure: In physiological conditions, ErbB2 activation occurs in heterodimer with the other ErbB family members, such as the EGFR in response to EGF stimulation or ErbB3 in response to heregulin (HRG) stimulation. We therefore addressed whether ZU, EB1 and their derivatives also affected the ligand-dependent physiological ErbB2 activation.
16 h-starved HBMECs cells were pre-treated or not for 1 h or 24 h with ZU, […] and their derivatives or AG1478 before EGF (50 ng/mL) or HRG1β (100 ng/mL) stimulation for 5 minutes. The activation of EGFR/ErBB2 or ErbB3/ErbB2 heterodimers-dependent signalling pathways was then analysed by western blot experiments using pAkt, Akt, pERK, ERK or 4G10 antibodies.

[3] = target: T1, V842I ErbB2 (Homo sapiens, UniProt P04626, V842I); experiment: Western blot pY1248, V842I ErbB2 in transfected HBMECs; assay type: cell-based; conditions: 0, 5, 10 or 20 μM, 48 h
T1 construct: expressed in transfected cells; host or cells: HBMEC
Procedure: HBMECs cells were transfected with plasmids encoding WT, V777L or V842I and treated with 0, 5, 10 or 20 μM ZU or EB1 for 48 h. ErbB2 activation was then analyzed by western blot analysis using a phospho-ErbB2-specific antibody (pY1248) and a total ErbB2 antibody. Histograms show optical density quantification.

Q: What does the source list for `O=C1c2ccccc2[Se](=O)N1c1ccccc1` (stereo not drawn) [EB1, Ebselen oxide]?
A: anchorage-independent growth of BT474 (in words) [1]: inhibited the anchorage-independent growth; ligand-dependent ErbB2 activation induced by EGF or HRG stimulation (in words) [2]: absence of inhibition; ErbB2 V842I activation (in words) [3]: potently decrease
